Key:
[1] = tested on: noncancerous human hepatocyte cells (LO2); assay: MTT cytotoxic assay, LO2; format: cell-based; settings: 48 h exposure, noncancerous hepatocytes
Protocol: (§1) All the compounds (1–3, 4a–o) were evaluated for their in vitro cytotoxic activity against three cancer cell lines including human breast cancer cell line (MCF-7), human hepatocarcinoma cell line (SMMC-7721), human cervical carcinoma cell line (HeLa), and a noncancerous human hepatocyte cell line (LO2) using the MTT assay method. An anticancer drug etoposide (VP-16) was co-assayed as the positive control. The results of the test compounds shown as IC50 values (concentration required to inhibit tumor cell proliferation by 50%), are listed in Table 1.
(§2) The in vitro cytotoxic activities of the quinoxaline derivatives of DAA were evaluated against a human breast cancer cell line (MCF-7), human hepatocarcinoma cell line (SMMC-7721), human cervical carcinoma cell line (HeLa) and noncancerous human hepatocyte cells (LO2) via the MTT colorimetric method. Briefly, different tumor cells were grown in DMEM supplemented with 10% fetal bovine serum, penicillin (100 U/mL), and streptomycin (50 μg/mL). Cells were harvested at the log phase of growth and seeded in 96-well plates (100 μL/well at a density of 2 × 10^5 cells/mL). After 24 h of incubation at 37 °C and 5% CO2 to allow for cell attachment, cultures were exposed to various concentrations of the isolated compounds for 48 h. Finally, the MTT solution (2.5 mg/mL in PBS) was added (40 μL/well). Plates were further incubated for 4 h at 37 °C, and the formazan crystals formed were dissolved by adding 150 μL/well of DMSO. Absorption at 570 nm was measured with an ELISA plate reader. The results were expressed as IC50 values with standard deviations, which were defined as the concentrations at which a 50% survival of the cells was discerned. Etoposide (VP-16) was co-assayed as the positive control.

SMMC-7721 cells [2] = assay: Hoechst 33258 staining assay; format: cell-based, human; settings: SMMC-7721, 0.2, 1.0 and 5.0 μM, 24 h
Protocol: To investigate the morphological changes induced by compound 4b in SMMC-7721 cells, Hoechst staining was carried out. Hoechst 33258 is a cell membrane permeable dye, which stains the live cells’ nuclei uniformly as light-blue and apoptotic cells’ nuclei as round and bright-blue, on account of karyopyknosis and chromatin condensation. SMMC-7721 cells were treated with various concentrations (0, 0.2, 1.0 and 5.0 μM) of compound 4b for 24 h, and stained with Hoechst 33258.
Cells grown on a sterile cover slip in six-well plates were treated with different concentrations of the test compound for 24 h. The culture medium containing compounds was removed, and the cells were fixed in 4% paraformaldehyde for 10 min. After being washed twice with PBS, the cells were stained with 0.5 mL of Hoechst 33258 (Beyotime, Haimen, China) for 5 min, and then again washed twice with PBS. The stained nuclei were observed under a Nikon ECLIPSETE2000-S fluorescence microscope using 350 nm for excitation and 460 nm for emission.

SMMC-7721 cells [3] = assay: Cell cycle analysis (PI staining, flow cytometry); format: cell-based, human
Protocol: Subsequently, to determine the possible role of the cell cycle arrest in cell growth inhibition induced by target compounds, SMMC-7721 cells were treated with different concentrations of compound 4b. The cell cycle distribution was investigated by flow cytometric analysis after staining of DNA with propidium iodide (PI).
SMMC-7721 cells were treated with indicated concentrations of compound 4b. After incubation for 48 h, the cells were washed twice with ice-cold PBS, fixed and permeabilized with ice-cold 70% ethanol at −20 °C overnight. The cells were treated with 100 μg/mL RNase A at 37 °C for 30 min after being washed with ice-cold PBS, and finally stained with 400 μL of 1 mg/mL PI in the dark at 4 °C for 30 min. The samples were then analyzed for their DNA content by flow cytometry (Becton-Dickinson FACSCalibur, New York, NY, USA).

[4] = tested on: human cervical carcinoma cell line (HeLa); assay: MTT cytotoxic assay, HeLa; format: cell-based; settings: 48 h exposure
Protocol: as §1, §2

SMMC-7721 cells [5] = assay: Annexin V-FITC/PI dual staining assay; format: cell-based, human
Text: The apoptotic effect of compound 4b was further evaluated by a Annexin V-FITC/propidium iodide (AV/PI) dual staining assay to examine the occurrence of phosphatidylserine externalization, which facilitated the detection of live cells (lower left quadrant; AV−/PI−), early apoptotic cells (lower right quadrant; AV+/PI−), late apoptotic cells (upper right quadrant; AV+/PI+) and necrotic cells (upper left quadrant; AV−/PI+).
Apoptosis was discriminated with the Annexin V-FITC/PI dual staining assay. SMMC-7721 cells were seeded at 1 × 10^5 cells per well in 10% fetal calf serum (FBS)-DMEM into six-well plates, and treated with compound 4b for 24 h. The cells were washed twice with cold PBS and then resuspended in 1 × binding buffer (0.1 M Hepes/NaOH (pH 7.4), 1.4 M NaCl, 25 mM CaCl2) at a concentration of 1 × 10^6 cells/mL. The solution (100 μL) was transferred to 5 mL culture tubes, and 5 μL of Annexin V-FITC (BD, Pharmingen) and 5 μL of PI were added to each tube. The cells were gently vortexed, and incubated for 30 min at 25 °C in the dark. PBS (200 μL) was added to each tube. The analysis was performed on a flow cytometry (Becton-Dickinson FACSCalibur, New York, NY, USA).

[6] = tested on: human breast cancer cell line (MCF-7); assay: MTT cytotoxic assay, MCF-7; format: cell-based; settings: MCF7, 48 h exposure
Protocol: as §1, §2

[7] = tested on: human hepatocarcinoma cell line (SMMC-7721); assay: MTT cytotoxic assay, SMMC-7721; format: cell-based; settings: 48 h exposure
Protocol: as §1, §2

In the case of `CCN(CC)Cc1nc2c(Br)cc3c(c2nc1CN(CC)CC)CCC1[C@](C)(C(=O)OC)CCC[C@]31C` (stereo partly shown) [Compound 4b, Methyl 12-bromo-2′,3′-bis((diethylamino)methyl)-13,14-pyrazinyldeisopropyl-dehydroabietate], the IC50 [1] is reported as 11.1 ± 0.57 µM, the “nuclear morphological changes / apoptosis (Hoechst 33258)” value (SMMC-7721 cells [2]) is reported as “induce apoptosis of SMMC-7721 cells in a dose-dependent manner” and the cell cycle arrest (SMMC-7721 cells [3]; SMMC-7721, 1.0-10.0 μM, 48 h) is reported as “arrest SMMC-7721 cells in the G0/G1 stage”. It also gave a G2/M phase cells (SMMC-7721 cells [3]; SMMC-7721, 48 h, end of the range 0-10.0 μM (control 10.42 ± 0.68%)) of 18.13 ± 0.13%, a S phase cells (SMMC-7721 cells [3]; SMMC-7721, 48 h, end of the range 0-10.0 μM (control 32.24 ± 0.21%)) of 8.54 ± 0.57% and a G0/G1 phase cells (SMMC-7721 cells [3]; SMMC-7721, 48 h, end of the range 0-10.0 μM (control 57.34 ± 0.48%)) of 73.33 ± 0.69%. For the same molecule, the IC50 [4] was 1.08 ± 0.12 µM, the “percentage of early apoptotic cells (AV+/PI−)” value (SMMC-7721 cells [5]; SMMC-7721, 5.0 μM, 24 h (control 2.84 ± 0.26%)) was 17.44 ± 0.68% and the “percentage of late apoptotic cells (AV+/PI+)” value (SMMC-7721 cells [5]; SMMC-7721, 5.0 μM, 24 h (control 7.45 ± 0.42%)) was 52.36 ± 1.23%. The “apoptotic cells (early + late)” value (SMMC-7721 cells [5]; SMMC-7721, 5.0 μM, 24 h (control 10.29%)) was 69.80%, the “induction of apoptosis (Annexin V-FITC/PI)” value (SMMC-7721 cells [5]; SMMC-7721, 24 h) was “induce the apoptosis of SMMC-7721 cells in a dose-dependent manner” and the IC50 [6] was 1.78 ± 0.36 µM. It also gave an IC50 [7] of 0.72 ± 0.09 µM.

Reference: paper PMC6152277, “Synthesis and Evaluation of New Quinoxaline Derivatives of Dehydroabietic Acid as Potential Antitumor Agents” (Molecules : A Journal of Synthetic Chemistry and Natural …, 2017)
